Results as given in ChEMBL document CHEMBL1201862, “PubChem BioAssay data set” (2004).
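Cultured in 96-well plates, cells were exposed to test compound for 48 hours across five concentrations. Here, GI50 denotes the concentration required for 50% inhibition of growth.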 The source made the active and inactive calls. Rule as the data show it: active = GI50 up to about 1.1 µM and inactive = higher.

Legend:
Assay in all cases: NCI tumour cell line growth inhibition, 48 h
[1] = test system: M14
[2] = test system: MDA-MB-435
[3] = test system: UO-31
[4] = test system: SN12C
[5] = test system: OVCAR-4
[6] = test system: SK-OV-3
[7] = test system: 786-0
[8] = test system: OVCAR-8
[9] = test system: HCT-15
[10] = test system: A498
[11] = test system: Malme-3M
[12] = test system: HT-29
[13] = test system: U-251
[14] = test system: OVCAR-3
[15] = test system: CCRF-CEM
[16] = test system: MDA-MB-231
[17] = test system: RXF 393
[18] = test system: IGROV-1
[19] = test system: TK-10

SMILES | GI50 [1] | GI50 [2] | GI50 [3] | GI50 [4] | GI50 [5] | GI50 [6] | GI50 [7] | GI50 [8] | GI50 [9] | GI50 [10] | GI50 [11] | GI50 [12] | GI50 [13] | GI50 [14] | GI50 [15] | GI50 [16] | GI50 [17] | GI50 [18] | GI50 [19]
Cc1ccc(N/C(SCc2ccccc2)=C(\C(Cl)=C(Cl)Cl)[N+](=O)[O-])c(C)c1 | 16.9 µM (inactive) | 7.21 µM (inactive) | 20 µM (inactive) | 20.4 µM (inactive) | 10.8 µM (inactive) | 39.8 µM (inactive) | 23.6 µM (inactive) | 18.5 µM (inactive) | 17.7 µM | 22.2 µM (inactive) | 21.4 µM (inactive) | 29.8 µM (inactive) | 15.6 µM (inactive) | 8.26 µM (inactive) | 31 µM (inactive) | 14.6 µM (inactive) | – | – | –
CCCCCCCCCC[C@@H](O)[C@H]1CC[C@@H]([C@H]2CC[C@H]([C@H](O)CCCCCCCCCC[C@@H]3CC(CC(C)=O)C(=O)O3)O2)O1 (some centres undefined) | 6.43 µM (inactive) | 32.4 µM (inactive) | 2.49 µM (inactive) | 2.17 µM (inactive) | 18.9 µM (inactive) | – | 25.8 µM (inactive) | 2.34 µM (inactive) | 5.12 µM | 38 µM (inactive) | 15.1 µM (inactive) | 3.42 µM (inactive) | 2.65 µM (inactive) | 3.75 µM (inactive) | 12.9 µM (inactive) | 3.64 µM (inactive) | 4.99 µM (inactive) | 8.28 µM (inactive) | 4.73 µM (inactive)
CCCCN1C(=O)C2Cc3c([nH]c4ccccc34)C(c3cccc(O)c3)N2C1=O (centres undefined) | 18.3 µM (inactive) | 17.3 µM (inactive) | 17.5 µM (inactive) | 17.9 µM (inactive) | 18.7 µM (inactive) | 16.1 µM (inactive) | 18.9 µM (inactive) | 18.9 µM (inactive) | 18.7 µM | 18.5 µM (inactive) | – | 20.9 µM (inactive) | 19 µM (inactive) | 16.3 µM (inactive) | 18.2 µM (inactive) | 15.5 µM (inactive) | – | 17.5 µM (inactive) | 18.3 µM (inactive)
O=C(NCCCCCCCCCCCCNC(=O)Nc1cccc2ccccc12)Nc1cccc2ccccc12 | 20.1 µM (inactive) | 17.9 µM (inactive) | 19.1 µM (inactive) | 17.6 µM (inactive) | 11.2 µM (inactive) | – | 13.5 µM (inactive) | 22.9 µM (inactive) | 18.4 µM | 16.9 µM (inactive) | 15.3 µM (inactive) | 21 µM (inactive) | 14.3 µM (inactive) | 16.7 µM (inactive) | 16.6 µM (inactive) | 20.7 µM (inactive) | 15.2 µM (inactive) | 18.4 µM (inactive) | 17.7 µM (inactive)
COc1ccc(C2C(C#N)=C(S)N(C3OC(CO)C(O)C(O)C3O)C(C)=C2C(C)=O)cc1 (centres undefined) | > 100 µM (inactive) | > 100 µM (inactive) | > 100 µM (inactive) | > 100 µM (inactive) | > 100 µM (inactive) | – | > 100 µM (inactive) | > 100 µM (inactive) | > 100 µM | > 100 µM (inactive) | > 100 µM (inactive) | > 100 µM (inactive) | > 100 µM (inactive) | 47.3 µM (inactive) | > 100 µM (inactive) | > 100 µM (inactive) | 50 µM (inactive) | > 100 µM (inactive) | > 100 µM (inactive)
CN(C)CCNC(=O)Cn1cc([N+](=O)[O-])c(=O)c2ccccc21 | > 100 µM (inactive) | > 100 µM (inactive) | > 100 µM (inactive) | > 100 µM (inactive) | – | > 100 µM (inactive) | > 100 µM (inactive) | > 100 µM (inactive) | > 100 µM | > 100 µM (inactive) | > 100 µM (inactive) | > 100 µM (inactive) | > 100 µM (inactive) | > 100 µM (inactive) | > 100 µM (inactive) | > 100 µM (inactive) | – | > 100 µM (inactive) | > 100 µM (inactive)
